Experimental data as given in PubChem BioAssay (NCI).
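GI50: concentration for 50% inhibition of growth. The concentration for full growth arrest is given as TGI.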

Legend:
Assay in all cases: NCI-60 cell line screen, 384-well format
BT-549 breast = system: BT-549 breast
UO-31 renal = system: UO-31 renal
OVCAR-4 ovarian = system: OVCAR-4 ovarian
NCI-H23 lung = system: NCI-H23 lung
HL-60(TB) leukemia = system: HL-60(TB) leukemia
RXF 393 renal = system: RXF 393 renal
RPMI-8226 leukemia = system: RPMI-8226 leukemia
SK-MEL-28 melanoma = system: SK-MEL-28 melanoma
DU-145 prostate = system: DU-145 prostate
OVCAR-5 ovarian = system: OVCAR-5 ovarian
MDA-MB-468 breast = system: MDA-MB-468 breast
HCT-116 colon = system: HCT-116 colon
SF-539 CNS = system: SF-539 CNS
HT29 colon = system: HT29 colon
A549 NSCLC = system: A549 NSCLC
NCI-H322M lung = system: NCI-H322M lung
HOP-62 NSCLC = system: HOP-62 NSCLC
NCI-H226 lung = system: NCI-H226 lung
OVCAR-8 ovarian = system: OVCAR-8 ovarian
U251 glioblastoma = system: U251 glioblastoma
MCF7 breast = system: MCF7 breast
NCI-H460 NSCLC = system: NCI-H460 NSCLC
MOLT-4 leukemia = system: MOLT-4 leukemia
MDA-MB-435 melanoma = system: MDA-MB-435 melanoma
LOX IMVI melanoma = system: LOX IMVI melanoma
HCC-2998 colon = system: HCC-2998 colon
KM12 colon = system: KM12 colon
M14 melanoma = system: M14 melanoma
HOP-92 NSCLC = system: HOP-92 NSCLC

With `C=CC(=O)N1CCC([C@@H]2CCNc3c(C(N)=O)c(-c4ccc(Oc5ccccc5)cc4)nn32)CC1` the GI50 (BT-549 breast) was 13.4 µM, the TGI (BT-549 breast) was 26.4 µM and the GI50 (UO-31 renal) was 12.1 µM. For the same molecule, the TGI (UO-31 renal) was > 80.8 µM, the GI50 (OVCAR-4 ovarian) was 15.5 µM and the TGI (OVCAR-4 ovarian) was 45.9 µM. For the same molecule, the GI50 (NCI-H23 lung) was 16.8 µM, the TGI (NCI-H23 lung) was 31.6 µM and the GI50 (HL-60(TB) leukemia) was 17.1 µM. For the same molecule, the TGI (HL-60(TB) leukemia) was 31.3 µM, the GI50 (RXF 393 renal) was 7.6 µM and the TGI (RXF 393 renal) was 20.2 µM. The GI50 (RPMI-8226 leukemia) was 16.3 µM, the TGI (RPMI-8226 leukemia) was 30.7 µM and the GI50 (SK-MEL-28 melanoma) was 18 µM. It also gave a TGI (SK-MEL-28 melanoma) of 33.6 µM, a GI50 (DU-145 prostate) of 11.6 µM and a TGI (DU-145 prostate) of 30.6 µM. The GI50 (OVCAR-5 ovarian) was 48.2 µM, the TGI (OVCAR-5 ovarian) was > 100 µM and the GI50 (MDA-MB-468 breast) was 0.684 µM. The TGI (MDA-MB-468 breast) was 4.09 µM, the GI50 (HCT-116 colon) was 17.6 µM and the TGI (HCT-116 colon) was 32.8 µM. The GI50 (SF-539 CNS) was 17.8 µM, the TGI (SF-539 CNS) was 35.7 µM and the GI50 (HT29 colon) was 17.8 µM. The TGI (HT29 colon) was 33.4 µM, the GI50 (A549 NSCLC) was 16.2 µM and the TGI (A549 NSCLC) was > 52.4 µM. The GI50 (NCI-H322M lung) was 2.53 µM, the TGI (NCI-H322M lung) was 15 µM and the GI50 (HOP-62 NSCLC) was 19.6 µM. The TGI (HOP-62 NSCLC) was 49.6 µM, the GI50 (NCI-H226 lung) was 14.2 µM and the TGI (NCI-H226 lung) was 32.3 µM. The GI50 (OVCAR-8 ovarian) was 17.2 µM, the TGI (OVCAR-8 ovarian) was 36.1 µM and the GI50 (U251 glioblastoma) was 19.4 µM. For the same molecule, the TGI (U251 glioblastoma) was 40.7 µM, the GI50 (MCF7 breast) was 23.7 µM and the TGI (MCF7 breast) was > 69 µM. The GI50 (NCI-H460 NSCLC) was 25.2 µM, the TGI (NCI-H460 NSCLC) was > 61.8 µM and the GI50 (MOLT-4 leukemia) was 14.3 µM. The TGI (MOLT-4 leukemia) was 27.6 µM, the GI50 (MDA-MB-435 melanoma) was 23 µM and the TGI (MDA-MB-435 melanoma) was 53.7 µM. The GI50 (LOX IMVI melanoma) was 14.9 µM, the TGI (LOX IMVI melanoma) was 28.5 µM and the GI50 (HCC-2998 colon) was 11.7 µM. For the same molecule, the TGI (HCC-2998 colon) was 24.2 µM, the GI50 (KM12 colon) was 42.5 µM and the TGI (KM12 colon) was > 100 µM. It also gave a GI50 (M14 melanoma) of 18 µM, a TGI (M14 melanoma) of 36.8 µM and a GI50 (HOP-92 NSCLC) of 14.6 µM. It also gave a TGI (HOP-92 NSCLC) of 29.7 µM.
